Experimental data as given in patent US20250345190A1, “DRUG ELUTING STENT” (SINO MEDICAL SCIENCES TECHNOLOGY INC., priority 2020, published 2025).
Where two headings read alike, the source gives them in different places.

Experiments:
[1] = Porcine-PK study of BuMA Supreme stent (blood, myocardium, coronary artery tissue); type: in vivo, Yucatan Miniature Swine; conditions: for concentration at 60 days: Yucatan miniature swine, pig, coronary artery, stented segment, other: drug-eluting stent implanted in coronary arteries
[2] = as above; type: in vivo, Yucatan Miniature Swine
Protocol: Release of drug from the stent and local, regional, and systemic delivery of sirolimus/rapamycin was quantified by measuring the drug content in stented coronary artery segments. Drug remaining on the stent and found in tissue was measured at 1, 3, 7, 14, 21, 28, […], 90, and 150 day time points. Stents were implanted into Yucatan Miniature Swine pigs. The porcine and human arteries have correlatively similar anatomy and the porcine model is recommended for use in preclinical studies by the FDA, EMEA and Schwartz et al. Thirty-one Yucatan mini-swine were implanted in two of three coronary arteries: the left circumflex artery [LCx], left anterior descending artery [LAD] and right coronary artery [RCA] of each animal, when possible.
Pharmacokinetic analysis was performed for both Rabbit-PK (2014-002) and Porcine-PK (1792-318G) studies, using whole blood, target tissue, and non-target tissue concentration versus time data, using Phoenix WinNonlin (version 8.1) non-compartment analysis function (linear trapezoidal rule for AUC calculations). Nominal dose values and sampling times were used for calculations. Any concentration reported as BLQ (LLOQ<0.100 ng/mL) was set equal to zero. Time points were manually evaluated for the determination of lambda z (R2>0.75), the elimination rate constant, upon which half-life (t1/2) was based.
For the rabbit and porcine study, pharmacokinetic analyses included Cmax, Tmax, Tlast, AUC0-24, AUClast, t1/2, and MRTlast and is presented in Table 2. Below.

SMILES: CO[C@H]1C[C@@H]2CC[C@@H](C)[C@@](O)(O2)C(=O)C(=O)N2CCCC[C@H]2C(=O)O[C@H]([C@H](C)C[C@@H]2CC[C@@H](O)[C@H](OC)C2)CC(=O)[C@H](C)/C=C(\C)[C@@H](O)[C@@H](OC)C(=O)[C@H](C)C[C@H](C)/C=C/C=C/C=C/1C [Rapamycin, Sirolimus (rapamycin)]
- concentration at 60 days ([1]; by 60 days, read-out: concentration of the drug in the artery (stented area)): 920 ± 200 ng/g
- concentration at 60 days ([1]; study day 60, read-out: Arterial drug concentration): 922 ± 203 ng/g
- samples with measurable drug levels in the artery ([1]; at 154 and 202 days): five of the twelve
- concentration at 1 days ([2]; Yucatan miniature swine, pig, coronary artery, stented segment, other: drug-eluting stent implanted in coronary arteries, study day 1, BuMA Supreme stent, porcine, read-out: Arterial drug concentration): 1630 ± 239 ng/g
- concentration at 3 days ([2]; Yucatan miniature swine, pig, coronary artery, stented segment, other: drug-eluting stent implanted in coronary arteries, study day 3, read-out: Arterial drug concentration): 2270 ± 735 ng/g
- concentration at 7 days ([2]; Yucatan miniature swine, pig, coronary artery, stented segment, other: drug-eluting stent implanted in coronary arteries, study day 7, read-out: Arterial drug concentration): 2580 ± 1430 ng/g
- concentration at 14 days ([2]; Yucatan miniature swine, pig, coronary artery, stented segment, other: drug-eluting stent implanted in coronary arteries, study day 14, read-out: Arterial drug concentration): 3700 ± 1710 ng/g
- concentration at 21 days ([2]; Yucatan miniature swine, pig, coronary artery, stented segment, other: drug-eluting stent implanted in coronary arteries, study day 21, read-out: Arterial drug concentration): 9850 ± 4720 ng/g
- concentration at 28 days ([2]; Yucatan miniature swine, pig, coronary artery, stented segment, other: drug-eluting stent implanted in coronary arteries, study day 28, read-out: Arterial drug concentration): 6780 ± 4140 ng/g
- concentration at 90 days ([2]; Yucatan miniature swine, pig, coronary artery, stented segment, other: drug-eluting stent implanted in coronary arteries, study day 90, read-out: Arterial drug concentration): 451 ± 188 ng/g
- concentration at 150 days ([2]; Yucatan miniature swine, pig, coronary artery, stented segment, other: drug-eluting stent implanted in coronary arteries, study day 150, read-out: Arterial drug concentration): 109 ± 12.1 ng/g
- time at which maximum concentration of the drug in the artery occurred ([2]; after implantation, stented area): 21 days
- maximum concentration of the drug in the artery (stented area) ([2]; average, 21 days after implantation, porcine coronary artery, BuMA Supreme stent): 9.85±4.72 μg/gm
- drug concentration in artery segments proximal and distal to the stented segment, relative to the stented segment value ([2]; in vivo): 3-11%
